Assay results reported in patent US10689429B2, “Double-acylated GLP-1 compounds” (Novo Nordisk A/S, priority 2014, dated 2020).
Like-named read-outs stand apart in the source and are kept apart here. *1 amine or outer side, *2 acyl side, *3 side chain or, on linkers, in order; H or OH if unused. Where a SMILES comes first, the peptide text is derived from it. Where no end group is shown, it is not given here. Side-chain parts run from the residue outwards. [ ]: non-standard residue; d: D form. The star is where a group is joined. Undecanoyl(11-OPh(4-COOH)) = O=C(O)c1ccc(OCCCCCCCCCCC(=O)*)cc1; Decanoyl(10-O(3-COOH-Ph)) = O=C(O)c1cccc(OCCCCCCCCCC(=O)*)c1; γGlu = O=C(O)[C@H](CCC(=O)[*:2])N[*:1]; AEEA = NCCOCCOCC(=O)O; Aib = CC(C)(N)C(=O)O

B1: GLP-1 derivative of Example 22 (peptide)
peptide: H[Aib]EGTFTSDVSSYLEEQAAREFIAWLVRGK([AEEA-AEEA-AEEA-AEEA-γGlu-Decanoyl(10-O(3-COOH-Ph))])K([AEEA-AEEA-AEEA-AEEA-γGlu-Decanoyl(10-O(3-COOH-Ph))])
B2: GLP-1 derivative of Example 18 (peptide)
peptide: H[Aib]EGTFTSDVSSYLEEQAAREFIAWLVRGK([AEEA-AEEA-γGlu-γGlu-Undecanoyl(11-OPh(4-COOH))])K([AEEA-AEEA-γGlu-γGlu-Undecanoyl(11-OPh(4-COOH))])

Assays:
human GLP-1 receptor [1] = target: T1, human GLP-1 receptor (Homo sapiens, UniProt P43220); assay: In vitro potency, CRE luciferase reporter gene assay in BHK cells expressing the human GLP-1 receptor; type: cell-based; settings: average of duplicates;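 note: firefly luciferase luminescence read after 3 h incubation at 37 °C, compounds tested in an eight-point series from 0.01 pM to 100 nM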
T1 construct: expressed in transfected cells; host or cells: membranes from BHK cells, parent line BHKTS13, clone FCW467-12A
T1 sequence (P43220 24-463): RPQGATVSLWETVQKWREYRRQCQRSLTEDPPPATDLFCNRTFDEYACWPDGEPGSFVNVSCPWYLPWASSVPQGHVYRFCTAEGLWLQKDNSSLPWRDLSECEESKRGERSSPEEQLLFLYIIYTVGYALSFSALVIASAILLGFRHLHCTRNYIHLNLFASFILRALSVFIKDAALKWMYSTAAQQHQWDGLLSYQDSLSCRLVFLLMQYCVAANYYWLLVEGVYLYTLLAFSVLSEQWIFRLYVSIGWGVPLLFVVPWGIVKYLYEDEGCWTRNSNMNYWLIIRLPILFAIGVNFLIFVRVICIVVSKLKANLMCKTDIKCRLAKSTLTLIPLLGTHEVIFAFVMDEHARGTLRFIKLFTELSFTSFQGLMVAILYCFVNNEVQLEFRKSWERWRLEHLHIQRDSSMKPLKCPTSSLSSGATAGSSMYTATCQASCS
Procedure: The in vitro potency is the measure of human GLP-1 receptor activation in a whole cell assay.
In vitro potency was determined by measuring the response of the human GLP-1 receptor in a reporter gene assay. The assay was performed in a stably transfected BHK cell line that expresses the human GLP-1 receptor and contains the DNA for the cAMP response element (CRE) coupled to a promoter and the gene for firefly luciferase (CRE luciferase). When the human GLP-1 receptor is activated it results in the production of cAMP, which in turn results in the luciferase protein being expressed. When assay incubation is completed the luciferase substrate (luciferin) is added and the enzyme converts luciferin to oxyluciferin to produce bioluminescence. The luminescence is measured as the readout for the assay.
An increase of the in vitro potency, EC50 value, in the presence of serum albumin would indicate an affinity to serum albumin and represents a method to predict a protracted pharmacokinetic profile of the test substance in animal models.
The cells were cultured at 5% CO2 in Cell Culture Medium. They were aliquoted and stored in liquid nitrogen. Before each assay an aliquot is taken up and washed twice in PBS before being suspended at the desired concentration in the assay specific buffer. For 96-well plates the suspension was made to give a final concentration of 5×10^3 cells/well.
Assay Medium consisted of DMEM w/o phenol red, 10 mM Hepes and 1× Glutamax. The 1% Assay Buffer consisted of 2% ovalbumin, 0.2% Pluronic F-68 and 2% HSA in Assay Medium. The 0% Assay Buffer consisted of 2% ovalbumin and 0.2% Pluronic F-68 in Assay Medium.
1) Cell stocks were thawed in a 37° C. water bath.
2) Cells were washed three times in PBS.
3) The cells were counted and adjusted to 5×10^3 cells/50 μl (1×10^5 cells/ml) in Assay Medium. A 50 μl aliquot of cells was transferred to each well in the assay plate.
4) Stocks of the test compounds and reference compounds were diluted to a concentration of 0.2 pM in 0% Assay Buffer for the 0% HSA CRE luciferase assay and 1% Assay Buffer for the 1% HSA CRE luciferase assay. […] Compounds were tested at the following final concentrations: 1×10^−7 M, 1×10^−8 M; 1×10^−9 M, 1×10^−10 M, 1×10^−11 M, 1×10^−12 M, 1×10^−13 M, and 1×10^−14 M. 6) The assay plate was incubated for 3 h in a 5% CO2 incubator at 37° C. […] 8) A 100 μl aliquot of steadylite plus reagent was added to each well of the assay plate (reagent was light sensitive). 9) Each assay plate was covered with aluminum foil to protect it from light and shaken for 30 min at room temperature. 10) Each assay plate was read in a Packard TopCount NXT instrument. Calculations and Results
The data from the TopCount instrument were transferred to GraphPad Prism software. The software performs a non-linear regression (log(agonist) vs response).
A minimum of two replicates was measured for each sample on separate assay plates. The reported values are averages of the duplicates. For some examples more than one assay was run and in this case the data reported are the averages of the averaged duplicates.

human GLP-1 receptor [2] = target: T2, human GLP-1 receptor (human, UniProt P43220)
Target sequence in this assay (P43220 24-463): as above

human GLP-1 receptor [3] = target: T2, human GLP-1 receptor; assay: displacement of [125I]-GLP-1-(7-36)NH2 from membranes with human GLP-1 receptor, SPA, high HSA (2.0%)
Procedure: Each derivative is added in a series of concentrations to isolated membranes containing the human GLP-1 receptor and displacement of the labelled ligand is monitored. The receptor binding is reported as the concentration at which half of the labelled ligand is displaced from the receptor, the $IC50$ value.
For the receptor binding assay in the presence of low HSA (0.001%) 50 μl of the assay buffer was added to each well of an assay plate. […] For the receptor binding assay in the presence of high HSA (2.0%) 50 μl of the 8% albumin stock was added to each well of an assay plate. […] Cell membrane aliquots were thawed and diluted to their working concentration. Fifty μl were added to each well in the assay plate. […] WGA SPA beads were suspended in assay buffer at 20 mg/ml. The suspension was diluted to 10 mg/ml in assay buffer just prior to addition to the assay plate. Fifty μl were added to each well in the assay plate. […] A 25 μl aliquot was reserved for measuring total counts/well. […] The assay plate was incubated for 2 h at 30° C. […] The assay plate was centrifuged for 10 min. […] The assay plate was read in a Packard TopCount NXT instrument.

[4] = EC50/pM (1% HSA), 1% HSA final assay concentration

Row | Molecule | EC50 (human GLP-1 receptor [1]; EC50/pM (0% HSA), 0% HSA) | EC50 (human GLP-1 receptor [1]; [4]) | other results
1 | CC[C@H](C)[C@H](NC(=O)[C@H](Cc1ccccc1)NC(=O)[C@H](CCC(=O)O)NC(=O)[C@H](CCCNC(=N)N)NC(=O)[C@H](C)NC(=O)[C@H](C)NC(=O)[C@H](CCC(N)=O)NC(=O)[C@H](CCC(=O)O)NC(=O)[C@H](CCC(=O)O)NC(=O)[C@H](CC(C)C)NC(=O)[C@H](Cc1ccc(O)cc1)NC(=O)[C@H](CO)NC(=O)[C@H](CO)NC(=O)[C@@H](NC(=O)[C@H](CC(=O)O)NC(=O)[C@H](CO)NC(=O)[C@@H](NC(=O)[C@H](Cc1ccccc1)NC(=O)[C@@H](NC(=O)CNC(=O)[C@H](CCC(=O)O)NC(=O)C(C)(C)NC(=O)[C@@H](N)Cc1c[nH]cn1)[C@@H](C)O)[C@@H](C)O)C(C)C)C(=O)N[C@@H](C)C(=O)N[C@@H](Cc1c[nH]c2ccccc12)C(=O)N[C@@H](CC(C)C)C(=O)N[C@H](C(=O)N[C@@H](CCCNC(=N)N)C(=O)NCC(=O)N[C@@H](CCCCNC(=O)COCCOCCNC(=O)COCCOCCNC(=O)COCCOCCNC(=O)COCCOCCNC(=O)CC[C@H](NC(=O)CCCCCCCCCOc1cccc(C(=O)O)c1)C(=O)O)C(=O)N[C@@H](CCCCNC(=O)COCCOCCNC(=O)COCCOCCNC(=O)COCCOCCNC(=O)COCCOCCNC(=O)CC[C@H](NC(=O)CCCCCCCCCOc1cccc(C(=O)O)c1)C(=O)O)C(=O)O)C(C)C [Example 22] | 1.8 pM | 7.7 pM | 
2 | CC[C@H](C)[C@H](NC(=O)[C@H](Cc1ccccc1)NC(=O)[C@H](CCC(=O)O)NC(=O)[C@H](CCCNC(=N)N)NC(=O)[C@H](C)NC(=O)[C@H](C)NC(=O)[C@H](CCC(N)=O)NC(=O)[C@H](CCC(=O)O)NC(=O)[C@H](CCC(=O)O)NC(=O)[C@H](CC(C)C)NC(=O)[C@H](Cc1ccc(O)cc1)NC(=O)[C@H](CO)NC(=O)[C@H](CO)NC(=O)[C@@H](NC(=O)[C@H](CC(=O)O)NC(=O)[C@H](CO)NC(=O)[C@@H](NC(=O)[C@H](Cc1ccccc1)NC(=O)[C@@H](NC(=O)CNC(=O)[C@H](CCC(=O)O)NC(=O)C(C)(C)NC(=O)[C@@H](N)Cc1c[nH]cn1)[C@@H](C)O)[C@@H](C)O)C(C)C)C(=O)N[C@@H](CCC(=O)O)C(=O)N[C@@H](Cc1c[nH]c2ccccc12)C(=O)N[C@@H](CC(C)C)C(=O)N[C@H](C(=O)N[C@@H](CCCNC(=N)N)C(=O)NCC(=O)N[C@@H](CCCCNC(=O)COCCOCCNC(=O)COCCOCCNC(=O)CC[C@H](NC(=O)CCCCCCCCCOc1cccc(C(=O)O)c1)C(=O)O)C(=O)N[C@@H](CCCCNC(=O)COCCOCCNC(=O)COCCOCCNC(=O)CC[C@H](NC(=O)CCCCCCCCCOc1cccc(C(=O)O)c1)C(=O)O)C(=O)O)C(C)C [Example 27, N{Epsilon-36}-[2-[2-[2-[[2-[2-[2-[[(4S)-4-carboxy-4-[10-(3-carboxyphenoxy)decanoylamino]butanoyl]amino]ethoxy]ethoxy]acetyl]amino]ethoxy]ethoxy]acetyl], N{Epsilon-37}-[2-[2-[2-[[2-[2-[2-[[(4S)-4-carboxy-4-[10-(3-carboxyphenoxy)decanoylamino]butanoyl]amino]ethoxy]ethoxy]acetyl]amino]ethoxy]ethoxy]acetyl]-[Aib8,Glu22,Arg26,Glu30,Arg34,Lys36,Lys37]-GLP-1-(7-37)-peptide] | 13 pM | 105 pM | 
3 | CC[C@H](C)[C@H](NC(=O)[C@H](Cc1ccccc1)NC(=O)[C@H](CCC(=O)O)NC(=O)[C@H](CCCNC(=N)N)NC(=O)[C@H](C)NC(=O)[C@H](C)NC(=O)[C@H](CCC(N)=O)NC(=O)[C@H](CCC(=O)O)NC(=O)[C@H](CCC(=O)O)NC(=O)[C@H](CC(C)C)NC(=O)[C@H](Cc1ccc(O)cc1)NC(=O)[C@H](CO)NC(=O)[C@H](CO)NC(=O)[C@@H](NC(=O)[C@H](CC(=O)O)NC(=O)[C@H](CO)NC(=O)[C@@H](NC(=O)[C@H](Cc1ccccc1)NC(=O)[C@@H](NC(=O)CNC(=O)[C@H](CCC(=O)O)NC(=O)CNC(=O)[C@@H](N)Cc1c[nH]cn1)[C@@H](C)O)[C@@H](C)O)C(C)C)C(=O)N[C@@H](C)C(=O)N[C@@H](Cc1c[nH]c2ccccc12)C(=O)N[C@@H](CC(C)C)C(=O)N[C@H](C(=O)N[C@@H](CCCNC(=N)N)C(=O)NCC(=O)N[C@@H](CCCCNC(=O)COCCOCCNC(=O)COCCOCCNC(=O)CC[C@H](NC(=O)CCCCCCCCCCOc1ccc(C(=O)O)cc1)C(=O)O)C(=O)N[C@@H](CCCCNC(=O)COCCOCCNC(=O)COCCOCCNC(=O)CC[C@H](NC(=O)CCCCCCCCCCOc1ccc(C(=O)O)cc1)C(=O)O)C(=O)O)C(C)C [Example 17, N{Epsilon-36}-[2-[2-[2-[[2-[2-[2-[[(4S)-4-carboxy-4-[11-(4-carboxyphenoxy)undecanoylamino]butanoyl]amino]ethoxy]ethoxy]acetyl]amino]ethoxy]ethoxy]acetyl], N{Epsilon-37}-[2-[2-[2-[[2-[2-[2-[[(4S)-4-carboxy-4-[11-(4-carboxyphenoxy)undecanoylamino]butanoyl]amino]ethoxy]ethoxy]acetyl]amino]ethoxy]ethoxy]acetyl]-[Gly8,Glu22,Arg26,Arg34,Lys36,Lys37]-GLP-1-(7-37)-peptide] (H-HGEGTFTSDVSSYLEEQAAREFIAWLVRGK([AEEA-AEEA-γGlu-Undecanoyl(11-OPh(4-COOH))])K([AEEA-AEEA-γGlu-Undecanoyl(11-OPh(4-COOH))])-OH; N-terminus and C-terminus assumed) | 14 pM | 199 pM | 
4 | CC[C@H](C)[C@H](NC(=O)[C@H](Cc1ccccc1)NC(=O)[C@H](CCC(=O)O)NC(=O)[C@H](CCCNC(=N)N)NC(=O)[C@H](C)NC(=O)[C@H](C)NC(=O)[C@H](CCC(N)=O)NC(=O)[C@H](CCC(=O)O)NC(=O)[C@H](CCC(=O)O)NC(=O)[C@H](CC(C)C)NC(=O)[C@H](Cc1ccc(O)cc1)NC(=O)[C@H](CO)NC(=O)[C@H](CO)NC(=O)[C@@H](NC(=O)[C@H](CC(=O)O)NC(=O)[C@H](CO)NC(=O)[C@@H](NC(=O)[C@H](Cc1ccccc1)NC(=O)[C@@H](NC(=O)CNC(=O)[C@H](CCC(=O)O)NC(=O)C(C)(C)NC(=O)[C@@H](N)Cc1c[nH]cn1)[C@@H](C)O)[C@@H](C)O)C(C)C)C(=O)N[C@@H](C)C(=O)N[C@@H](Cc1c[nH]c2ccccc12)C(=O)N[C@@H](CC(C)C)C(=O)N[C@H](C(=O)N[C@@H](CCCNC(=N)N)C(=O)NCC(=O)N[C@@H](CCCCNC(=O)COCCOCCNC(=O)COCCOCCNC(=O)CC[C@H](NC(=O)CC[C@H](NC(=O)CCCCCCCCCCCCC(=O)O)C(=O)O)C(=O)O)C(=O)N[C@@H](CCCCNC(=O)COCCOCCNC(=O)COCCOCCNC(=O)CC[C@H](NC(=O)CC[C@H](NC(=O)CCCCCCCCCCCCC(=O)O)C(=O)O)C(=O)O)C(=O)O)C(C)C [Example 21] |  | 13 pM | EC50 (human GLP-1 receptor [1]; 0% HSA, read-out: EC50/pM (0% HSA)): 5.6 pM
5 | CC[C@H](C)[C@H](NC(=O)[C@H](Cc1ccccc1)NC(=O)[C@H](CCC(=O)O)NC(=O)[C@H](CCCNC(=N)N)NC(=O)[C@H](C)NC(=O)[C@H](C)NC(=O)[C@H](CCC(N)=O)NC(=O)[C@H](CCC(=O)O)NC(=O)[C@H](CCC(=O)O)NC(=O)[C@H](CC(C)C)NC(=O)[C@H](Cc1ccc(O)cc1)NC(=O)[C@H](CO)NC(=O)[C@H](CO)NC(=O)[C@@H](NC(=O)[C@H](CC(=O)O)NC(=O)[C@H](CO)NC(=O)[C@@H](NC(=O)[C@H](Cc1ccccc1)NC(=O)[C@@H](NC(=O)CNC(=O)[C@H](CCC(=O)O)NC(=O)C(C)(C)NC(=O)[C@@H](N)Cc1c[nH]cn1)[C@@H](C)O)[C@@H](C)O)C(C)C)C(=O)N[C@@H](CCC(=O)O)C(=O)N[C@@H](Cc1c[nH]c2ccccc12)C(=O)N[C@@H](CC(C)C)C(=O)N[C@H](C(=O)N[C@@H](CCCNC(=N)N)C(=O)NCC(=O)N[C@@H](CCCCNC(=O)COCCOCCNC(=O)COCCOCCNC(=O)COCCOCCNC(=O)COCCOCCNC(=O)CC[C@H](NC(=O)CCCCCCCCCOc1cccc(C(=O)O)c1)C(=O)O)C(=O)N[C@@H](CCCCNC(=O)COCCOCCNC(=O)COCCOCCNC(=O)COCCOCCNC(=O)COCCOCCNC(=O)CC[C@H](NC(=O)CCCCCCCCCOc1cccc(C(=O)O)c1)C(=O)O)C(=O)O)C(C)C [Example 28] | 12 pM | 25 pM | 
6 | CC[C@H](C)[C@H](NC(=O)[C@H](Cc1ccccc1)NC(=O)[C@H](CCC(=O)O)NC(=O)[C@H](CCCNC(=N)N)NC(=O)[C@H](C)NC(=O)[C@H](C)NC(=O)[C@H](CCC(N)=O)NC(=O)[C@H](CCC(=O)O)NC(=O)[C@H](CCC(=O)O)NC(=O)[C@H](CC(C)C)NC(=O)[C@H](Cc1ccc(O)cc1)NC(=O)[C@H](CO)NC(=O)[C@H](CO)NC(=O)[C@@H](NC(=O)[C@H](CC(=O)O)NC(=O)[C@H](CO)NC(=O)[C@@H](NC(=O)[C@H](Cc1ccccc1)NC(=O)[C@@H](NC(=O)CNC(=O)[C@H](CCC(=O)O)NC(=O)C(C)(C)NC(=O)[C@@H](N)Cc1c[nH]cn1)[C@@H](C)O)[C@@H](C)O)C(C)C)C(=O)N[C@@H](C)C(=O)N[C@@H](Cc1c[nH]c2ccccc12)C(=O)N[C@@H](CC(C)C)C(=O)N[C@H](C(=O)N[C@@H](CCCNC(=N)N)C(=O)NCC(=O)N[C@@H](CCCCNC(=O)COCCOCCNC(=O)COCCOCCNC(=O)CC[C@H](NC(=O)CC[C@H](NC(=O)CCCCCCCCCCOc1ccc(C(=O)O)cc1)C(=O)O)C(=O)O)C(=O)N[C@@H](CCCCNC(=O)COCCOCCNC(=O)COCCOCCNC(=O)CC[C@H](NC(=O)CC[C@H](NC(=O)CCCCCCCCCCOc1ccc(C(=O)O)cc1)C(=O)O)C(=O)O)C(=O)O)C(C)C [Example 18] |  | 29 pM | 
7 | B1 |  |  | EC50/pM (0% HSA) (human GLP-1 receptor [2]): 1.8 pM; EC50/pM (1% HSA) (human GLP-1 receptor [2]): 7.7 pM; IC50 (human GLP-1 receptor [3]): 45 nM
8 | B2 |  |  | EC50/pM (0% HSA) (human GLP-1 receptor [2]): 0.8 pM; EC50/pM (1% HSA) (human GLP-1 receptor [2]): 29 pM
